The results in this text go back to PubChem BioAssay (NCI).

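Following 48 hours of exposure in 96-well plates, responses at five concentrations were used to interpolate endpoints linearly. The concentration for 50% growth inhibition is given as GI50. At the TGI there is no net growth.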

Some test systems named below: CCRF-CEM leukemia; CAKI-1 renal; SK-OV-3 ovarian; SR leukemia; 786-0 renal; MALME-3M melanoma; COLO 205 colon; OVCAR-5 ovarian.
Experiment in all cases: NCI-60 cell line screen, 48 h

As for `COC(=O)c1cncc(/C=C/c2c(C)cc(O)cc2C)c1`, the GI50 in the assay with CCRF-CEM leukemia was 6770 nM; in the assay on CAKI-1 renal, above 16200 nM; in the assay with SK-OV-3 ovarian, 8010 nM; in the assay with SR leukemia it was 2670 nM; in the assay with 786-0 renal, 9420 nM; with MALME-3M melanoma it was 11500 nM. Also, the GI50 is above 22400 nM in the assay with COLO 205 colon and above 24100 nM in the assay with OVCAR-5 ovarian. For the same molecule, the TGI in the assay with CCRF-CEM leukemia is above 25000 nM; in the assay with CAKI-1 renal, above 25000 nM; in the assay with SK-OV-3 ovarian, 24800 nM; with SR leukemia it was above 25000 nM; in the assay with 786-0 renal, above 25000 nM; with MALME-3M melanoma, above 25000 nM. Moreover, the TGI with COLO 205 colon and with OVCAR-5 ovarian was above 25000 nM in each case.

On to `COc1cc2nc(-c3cc(F)ccc3O)nc(N[C@@H]3CNC[C@H]3C(C)(C)O)c2cc1OC`, for which the GI50 with CCRF-CEM leukemia was 2290 nM; in the assay on CAKI-1 renal it was 1000 nM; with SK-OV-3 ovarian, 2290 nM; in the assay on SR leukemia, 1270 nM; with 786-0 renal, 1440 nM; in the assay on MALME-3M melanoma, 1780 nM. Further, the GI50 is 1630 nM in the assay with COLO 205 colon and 1500 nM with OVCAR-5 ovarian. Further, the TGI with CCRF-CEM leukemia worked out at 7300 nM; in the assay with CAKI-1 renal it was 2540 nM; with SK-OV-3 ovarian it was 4720 nM; in the assay with SR leukemia it was 3620 nM; in the assay with 786-0 renal, 2920 nM; in the assay with MALME-3M melanoma it was 3240 nM. Further, the TGI with COLO 205 colon is 3160 nM; with OVCAR-5 ovarian, 3670 nM.

As to `C=CCN1CC(=O)N2[C@@H](Cc3ccc(O)cc3F)C(=O)N(Cc3cccc(N4CC(N5CCN(CC)CC5)C4)n3)C[C@@H]2N1C(=O)NCc1ccccc1`, the GI50 is 39.8 nM in the assay on CCRF-CEM leukemia; 50.7 nM with CAKI-1 renal; 34.5 nM in the assay on SK-OV-3 ovarian; 29.2 nM with SR leukemia; 173 nM with 786-0 renal; 29.2 nM in the assay with MALME-3M melanoma. For the same molecule, the GI50 in the assay on COLO 205 colon was 28 nM; with OVCAR-5 ovarian, 35.4 nM. The TGI is above 100000 nM in the assay with CCRF-CEM leukemia; 504 nM in the assay on CAKI-1 renal; 244 nM in the assay with SK-OV-3 ovarian; 1700 nM in the assay on SR leukemia; above 100000 nM in the assay on 786-0 renal; 211 nM in the assay on MALME-3M melanoma. The TGI in the assay on COLO 205 colon is 262 nM; in the assay on OVCAR-5 ovarian it was above 100000 nM.

`CCN(CC)CCCCCCNc1cc(OC)cc2cccnc12`: the GI50 in the assay with CCRF-CEM leukemia was 2390 nM; in the assay on CAKI-1 renal, 12400 nM; in the assay with SK-OV-3 ovarian, 17700 nM; with SR leukemia it was 1990 nM; in the assay on 786-0 renal, 2110 nM; with MALME-3M melanoma, 2030 nM. The GI50 in the assay with COLO 205 colon was 1940 nM; with OVCAR-5 ovarian it was 6740 nM. The TGI in the assay on CCRF-CEM leukemia amounted to 4970 nM; in the assay with CAKI-1 renal it was 26600 nM; with SK-OV-3 ovarian, 33000 nM; in the assay with SR leukemia it was 4100 nM; in the assay with 786-0 renal, 4320 nM; with MALME-3M melanoma, 3930 nM. Moreover, the figures for the TGI with COLO 205 colon and with OVCAR-5 ovarian were 3850 nM and 22700 nM, respectively.

For `OC(C#Cc1ccccc1)(c1ccccc1)c1ccccc1`, the TGI in the assay on CCRF-CEM leukemia is 35300 nM; in the assay with CAKI-1 renal it was 61800 nM; in the assay with SK-OV-3 ovarian it was above 100000 nM; in the assay with SR leukemia it was above 100000 nM; with 786-0 renal, above 100000 nM; in the assay on MALME-3M melanoma, 60200 nM. The TGI with COLO 205 colon and with OVCAR-5 ovarian was above 100000 nM in each case.

Turning to `CCCCCCNC(=O)Oc1ccc(/C(=C(\C)c2ccc(Cl)cc2)c2ccc(OCCN3CCCCC3)cc2)cc1`, the GI50 with CCRF-CEM leukemia was 3200 nM; in the assay on CAKI-1 renal it was 4030 nM; with SK-OV-3 ovarian, 5420 nM; in the assay with SR leukemia, 727 nM; in the assay with 786-0 renal, 1930 nM; with MALME-3M melanoma it was 3360 nM. Further, the GI50 with COLO 205 colon is 1440 nM; in the assay on OVCAR-5 ovarian, 5030 nM. The TGI amounted to 33300 nM in the assay with CCRF-CEM leukemia; 8250 nM in the assay with CAKI-1 renal; 13600 nM with SK-OV-3 ovarian; 2140 nM in the assay on SR leukemia; 6410 nM with 786-0 renal; 7700 nM with MALME-3M melanoma. Besides, the figures for the TGI with COLO 205 colon and in the assay with OVCAR-5 ovarian were 6440 nM and 16000 nM, respectively.

On to `Oc1cccc2ccc(N/N=C/c3cc(CN4CCOCC4)c(O)c4ncccc34)nc12`, for which the GI50 in the assay with CCRF-CEM leukemia was 39.1 nM; with CAKI-1 renal it was 50.6 nM; with SK-OV-3 ovarian, 27.2 nM; with SR leukemia, 33.2 nM; with 786-0 renal it was 44.4 nM; with MALME-3M melanoma, 32 nM. For the same molecule, the GI50 is 117 nM in the assay with COLO 205 colon and 135 nM in the assay with OVCAR-5 ovarian. Further, the TGI came to 9950 nM in the assay on CCRF-CEM leukemia; 1590 nM in the assay on CAKI-1 renal; 368 nM in the assay with SK-OV-3 ovarian; 4380 nM in the assay on SR leukemia; 3750 nM with 786-0 renal; 1890 nM in the assay with MALME-3M melanoma. In addition, the TGI in the assay on COLO 205 colon was 1600 nM; with OVCAR-5 ovarian it was 15400 nM.

Turning to `COc1ccc(/C=C(\C#N)n2nnc3c(F)cccc32)cc1`, the GI50 in the assay with CCRF-CEM leukemia was 311 nM; with CAKI-1 renal, 122 nM; in the assay with SK-OV-3 ovarian, 1050 nM; in the assay on SR leukemia, 161 nM; in the assay on 786-0 renal, 607 nM; in the assay on MALME-3M melanoma, 517 nM. For the same molecule, the GI50 is 380 nM with COLO 205 colon and 840 nM in the assay on OVCAR-5 ovarian. For the same molecule, the TGI with CCRF-CEM leukemia is above 100000 nM; with CAKI-1 renal it was above 100000 nM; in the assay on SK-OV-3 ovarian, above 90000 nM; in the assay with SR leukemia, above 100000 nM; in the assay with 786-0 renal, above 51200 nM; in the assay on MALME-3M melanoma, above 100000 nM. Besides, the TGI in the assay on COLO 205 colon was above 100000 nM; in the assay with OVCAR-5 ovarian it was 14000 nM.

With `O=S(=O)(/C=C/C(=C/c1ccccc1)S(=O)(=O)c1ccccc1)c1ccccc1`, the TGI worked out at 3050 nM in the assay on CCRF-CEM leukemia; 2880 nM in the assay on CAKI-1 renal; 2790 nM with SK-OV-3 ovarian; 4410 nM with SR leukemia; 3150 nM in the assay on 786-0 renal; 3300 nM with MALME-3M melanoma. The same molecule had a TGI with COLO 205 colon of 4310 nM.

`COC1C(O)C(CO)OC(OC2C(O)COC(OC3C(C)OC(OC4C(O[C@H]5CC[C@@]6(C)C(CC=C7[C@H]6CCC68C(=O)O[C@@](C)(CCCC(C)C)[C@H]6[C@@H](OC(C)=O)C[C@@]78C)C5(C)C)OCC(OS(=O)(=O)O)C4O)C(OC4OCC(O)C(O)C4O)C3O)C2O)C1O` (stereo partly specified): the GI50 is 225 nM with CCRF-CEM leukemia; 303 nM in the assay with CAKI-1 renal; 62.8 nM in the assay on SR leukemia; 134 nM in the assay on 786-0 renal; 242 nM with MALME-3M melanoma; 73.8 nM in the assay with COLO 205 colon. Also, the GI50 in the assay on OVCAR-5 ovarian was 241 nM. Moreover, the TGI stood at 775 nM in the assay with CCRF-CEM leukemia; 922 nM with CAKI-1 renal; 238 nM in the assay with SR leukemia; 349 nM with 786-0 renal; 671 nM with MALME-3M melanoma; 286 nM in the assay on COLO 205 colon. The same molecule returned a TGI with OVCAR-5 ovarian of 564 nM.
